Laboratory results from the supplement of paper PMC10307832.

Assays:
Experiment in all cases: relative viability (nuclei count vs DMSO), 5 days (fraction); higher = more cells survive
RERF-LC-KJ = system: RERF-LC-KJ
Method in brief: (§1)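 The day after seeding in 1536-well plates, lung cancer cell lines were treated by pin tool with a single drug, or with a fixed anchor-drug dose together with five library-drug doses (not always all listed) in √10 steps. After 5 days, a combined fix-and-stain solution (final 0.05% Triton X-100, 1% formaldehyde, 1 ug/ml Hoechst) was added. Nuclei counted on 4× images gave relative viability as treated counts over vehicle counts, reported as the median of duplicate plates.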

LOU-NH91 = system: LOU-NH91
Method in brief: as §1

NCI-H1792 = system: NCI-H1792
Method in brief: as §1

SK-MES-1 = system: SK-MES-1
Method in brief: as §1

COR-L 105 = system: COR-L 105
Method in brief: as §1

NCI-H358 = system: NCI-H358
Method in brief: as §1

NCI-H1650 = system: NCI-H1650
Method in brief: as §1

HCC-78 = system: HCC-78
Method in brief: as §1

LCLC-97TM1 = system: LCLC-97TM1
Method in brief: as §1

LU99A = system: LU99A
Method in brief: as §1

NCI-H727 = system: NCI-H727
Method in brief: as §1

EKVX = system: EKVX
Method in brief: as §1

BEN = system: BEN
Method in brief: as §1

EMC-BAC-2 = system: EMC-BAC-2
Method in brief: as §1

SW 1573 = system: SW 1573
Method in brief: as §1

NCI-H1944 = system: NCI-H1944
Method in brief: as §1

LK-2 = system: LK-2
Method in brief: as §1

HCC-827 = system: HCC-827
Method in brief: as §1

NCI-H1734 = system: NCI-H1734
Method in brief: as §1

NCI-H2126 = system: NCI-H2126
Method in brief: as §1

EPLC-272H = system: EPLC-272H
Method in brief: as §1

NCI-H2087 = system: NCI-H2087
Method in brief: as §1

In the case of `Cc1cnc(-c2cnc(NCCNc3ccc(C#N)cn3)nc2-c2ccc(Cl)cc2Cl)[nH]1` + CS(=O)(=O)CCNCc1ccc(-c2ccc3ncnc(Nc4ccc(OCc5cccc(F)c5)c(Cl)c4)c3c2)o1 [Lapatinib] (partner 2 µM), the relative viability (RERF-LC-KJ; first compound 0.08 µM) is reported as 0.902, the relative viability (RERF-LC-KJ; first compound 0.253 µM) is reported as 0.777 and the relative viability (RERF-LC-KJ; first compound 0.8 µM) is reported as 0.771. The relative viability (RERF-LC-KJ; first compound 2.53 µM) was 0.932, the relative viability (LOU-NH91; first compound 0.08 µM) was 0.811 and the relative viability (LOU-NH91; first compound 0.253 µM) was 0.738. The relative viability (LOU-NH91; first compound 0.8 µM) was 0.739, the relative viability (LOU-NH91; first compound 2.53 µM) was 0.866 and the relative viability (NCI-H1792; first compound 0.08 µM) was 0.927. For the same compound, the relative viability (NCI-H1792; first compound 0.253 µM) was 0.756, the relative viability (NCI-H1792; first compound 0.8 µM) was 0.862 and the relative viability (NCI-H1792; first compound 2.53 µM) was 0.866. It also gave a relative viability (SK-MES-1; first compound 0.08 µM) of 0.514, a relative viability (SK-MES-1; first compound 0.253 µM) of 0.474 and a relative viability (SK-MES-1; first compound 0.8 µM) of 0.439. For the same compound, the relative viability (SK-MES-1; first compound 2.53 µM) was 0.559, the relative viability (COR-L 105; first compound 0.08 µM) was 0.397 and the relative viability (COR-L 105; first compound 0.253 µM) was 0.348. It also gave a relative viability (COR-L 105; first compound 0.8 µM) of 0.318, a relative viability (COR-L 105; first compound 2.53 µM) of 0.403 and a relative viability (NCI-H358; first compound 0.08 µM) of 0.43. It also gave a relative viability (NCI-H358; first compound 0.253 µM) of 0.49, a relative viability (NCI-H358; first compound 0.8 µM) of 0.412 and a relative viability (NCI-H358; first compound 2.53 µM) of 0.401. For the same compound, the relative viability (NCI-H1650; first compound 0.08 µM) was 0.842, the relative viability (NCI-H1650; first compound 0.253 µM) was 0.668 and the relative viability (NCI-H1650; first compound 0.8 µM) was 0.387. The relative viability (NCI-H1650; first compound 2.53 µM) was 0.555, the relative viability (HCC-78; first compound 0.08 µM) was 0.449 and the relative viability (HCC-78; first compound 0.253 µM) was 0.528. For the same compound, the relative viability (HCC-78; first compound 0.8 µM) was 1.12, the relative viability (HCC-78; first compound 2.53 µM) was 0.546 and the relative viability (LCLC-97TM1; first compound 0.08 µM) was 1.1. It also gave a relative viability (LCLC-97TM1; first compound 0.253 µM) of 0.883, a relative viability (LCLC-97TM1; first compound 0.8 µM) of 1.07 and a relative viability (LCLC-97TM1; first compound 2.53 µM) of 0.745. It also gave a relative viability (LU99A; first compound 0.08 µM) of 1.06, a relative viability (LU99A; first compound 0.253 µM) of 0.879 and a relative viability (LU99A; first compound 0.8 µM) of 1.06. For the same compound, the relative viability (LU99A; first compound 2.53 µM) was 1.04, the relative viability (NCI-H727; first compound 0.08 µM) was 0.822 and the relative viability (NCI-H727; first compound 0.253 µM) was 0.882. For the same compound, the relative viability (NCI-H727; first compound 0.8 µM) was 0.765, the relative viability (NCI-H727; first compound 2.53 µM) was 0.782 and the relative viability (EKVX; first compound 0.08 µM) was 0.235. The relative viability (EKVX; first compound 0.253 µM) was 0.222, the relative viability (EKVX; first compound 2.53 µM) was 0.224 and the relative viability (BEN; first compound 0.08 µM) was 0.615. It also gave a relative viability (BEN; first compound 0.253 µM) of 0.686, a relative viability (BEN; first compound 0.8 µM) of 0.705 and a relative viability (BEN; first compound 2.53 µM) of 0.621. For the same compound, the relative viability (EMC-BAC-2; first compound 0.08 µM) was 1.02, the relative viability (EMC-BAC-2; first compound 0.253 µM) was 0.808 and the relative viability (EMC-BAC-2; first compound 0.8 µM) was 0.887. For the same compound, the relative viability (EMC-BAC-2; first compound 2.53 µM) was 0.859, the relative viability (SW 1573; first compound 0.08 µM) was 1.02 and the relative viability (SW 1573; first compound 0.253 µM) was 1.04. It also gave a relative viability (SW 1573; first compound 0.8 µM) of 1.1, a relative viability (SW 1573; first compound 2.53 µM) of 1.02 and a relative viability (NCI-H1944; first compound 0.08 µM) of 0.858. It also gave a relative viability (NCI-H1944; first compound 0.8 µM) of 0.776, a relative viability (NCI-H1944; first compound 2.53 µM) of 0.872 and a relative viability (LK-2; first compound 0.08 µM) of 1.1. It also gave a relative viability (LK-2; first compound 0.253 µM) of 0.885, a relative viability (LK-2; first compound 0.8 µM) of 0.928 and a relative viability (LK-2; first compound 2.53 µM) of 0.897. It also gave a relative viability (HCC-827; first compound 0.08 µM) of 0.189, a relative viability (HCC-827; first compound 0.8 µM) of 0.213 and a relative viability (HCC-827; first compound 2.53 µM) of 0.179. The relative viability (NCI-H1734; first compound 0.08 µM) was 1.13, the relative viability (NCI-H1734; first compound 0.253 µM) was 0.901 and the relative viability (NCI-H1734; first compound 0.8 µM) was 0.882. It also gave a relative viability (NCI-H1734; first compound 2.53 µM) of 1.05, a relative viability (NCI-H2126; first compound 0.08 µM) of 0.753 and a relative viability (NCI-H2126; first compound 0.253 µM) of 0.728. For the same compound, the relative viability (NCI-H2126; first compound 0.8 µM) was 0.786, the relative viability (NCI-H2126; first compound 2.53 µM) was 0.741 and the relative viability (EPLC-272H; first compound 0.08 µM) was 1.08. The relative viability (EPLC-272H; first compound 0.253 µM) was 0.88, the relative viability (EPLC-272H; first compound 0.8 µM) was 0.599 and the relative viability (EPLC-272H; first compound 2.53 µM) was 0.946. The relative viability (NCI-H2087; first compound 0.08 µM) was 1.16, the relative viability (NCI-H2087; first compound 0.253 µM) was 0.729 and the relative viability (NCI-H2087; first compound 0.8 µM) was 1.39. For the same compound, the relative viability (NCI-H2087; first compound 2.53 µM) was 0.979.
